Experiments:
[1] = test system: HCT116 MCLs over-expressing AKR1C3; experiment: Multicellular layer (MCL) clonogenic assay, HCT116 wild type versus AKR1C3 over-expressing MCLs; format: cell-based, human
Experimental: (§1) In parallel, a three dimensional high-cell density multi-cellular layer (MCL) clonogenic assay was performed. 1×10^6 cells of either 100% HCT-116^WT or containing 97% WT with a minor 3% HCT-116^NTR cell population were seeded into a collagen-coated Teflon microporous membrane and left to grow for 3 days. MCLs were then exposed to prodrug for 5 h. After treatment, MCLs were enzyme dissociated, diluted in fresh medium and plated to determine clonogenic survival. To discriminate clonogenic activator (NTR+) from target (NTR−) colonies, cells were plated in non-selective medium (total cells) and medium containing 1 μM puromycin (activator cells). Colonies were grown for 10 days before staining. Colonies containing >50 cells were counted. A variation of this assay was also used to assess for evidence of AKR1C3-dependent cytotoxicity. Here either 100% HCT-116W^T or 100% HCT-116^AKR1C3 cells were seeded to provide MCLs that were then exposed to prodrug.

[2] = test system: HCT116 cells engineered to over-express E coli NfsA; experiment: Low cell density IC50 (SRB) assay, HCT116 wild type versus E coli NfsA over-expressing cells; format: cell-based, human
Experimental: (§2) Compounds were subjected to testing, including low-cell density cytotoxicity assay. Cells (500 cells/well) were seeded in 96-well plates and exposed to prodrug for 4 h, washed, then left to grow for a further 5 days. The SRB assay was employed to determine IC50 values (concentration of prodrug required to inhibit proliferation by 50%). Parental HCT116 cells (HCT116 is a cell line derived from human colon cancer) and cells expressing the example nitroreductase gene nfsA from Escherichia coli were evaluated head-to-head. Parental H1299 cells (H1299 is a cell line derived from lung cancer) and cells expressing the example nitroreductase gene nfsA from Escherichia coli were evaluated head-to-head. Parental HCT116 cells and cells expressing human AKR1C3 were evaluated head-to-head. Parental H1299 cells and cells expressing human AKR1C3 were evaluated head-to-head. In a variation of these assays test compounds were assessed for their ability to give hypoxia-selective cell killing. Here wild type HCT116, H460 (H460 is a cell line derived from lung cancer), H1299 and SiHa cells (SiHa is a cell line derived from cervical cancer) were used in addition to HCT116 cells engineered to over express cytochrome P450 reductase (HCT116 POR), a human one-electron nitroreductase. Low-cell density cytotoxicity assays were performed as above under oxic conditions and compared to experiments where cells were shown 4 h of anoxia during the prodrug exposure period, before being washed free of prodrug and then left to grow for a further 5 days under oxic conditions, as above.

[3] = test system: HCT116 MCLs with 3% E coli NfsA-expressing cells; experiment: MCL clonogenic bystander assay, HCT116 MCLs seeded with 3% E coli NfsA-expressing cells; format: cell-based, human; details: 97% wild type HCT116, 3% E coli NfsA-expressing cells
Experimental: as §1

[4] = test system: 15% E coli NfsA-expressing H1299 xenografts; experiment: Tumour growth delay, 15% E coli NfsA-expressing H1299 xenografts; format: in vivo, NIH-III mice; details: for E coli NfsA mediated anti-tumour efficacy (mean tumour volume): 500 umol/kg twice daily (BID), total 1000 umol/kg; for tumour growth delay: mixed HCT116 and H1299 xenografts, 15% E coli NfsA cells, single (or BID) intraperitoneal dose
Experimental: Animals weighed 18-25 g at the time of tumour inoculation. Tumours were grown subcutaneously on the right flank of mice by inoculating cells grown in tissue culture (1×10^7 cells in 100 uL serum free α-MEM). Tumour sizes were monitored three times weekly using electronic callipers and treatments were initiated once tumour diameter reached ≥7 mm.
Tumour bearing mice were randomised into the appropriate treatment groups and tumour size and body weight recorded. Test compounds were formulated on the day of the experiment and kept in foil-wrapped tubes out of direct fluorescent light. If recruitment of animals occurred over multiple days, the drug stocks were aliquoted into tubes and frozen once at […] until required. Mice were treated with a single (or BID) dose of prodrug by intraperitoneal injection and thereafter tumour size and body weight was monitored every second day. Tumour volume was calculated as π (l×w×w)/6, where l is the major axis and w is the perpendicular minor axis. Animals were culled when they had reached the appropriate survival endpoint or when body weight loss exceeded 20% of the pre-treatment value.

[5] = test system: HCT116 cells engineered to over-express human aldo-ketoreductase 1C3 (AKR1C3); experiment: Low cell density IC50 (SRB) assay, HCT116 wild type versus AKR1C3 over-expressing cells; format: cell-based; details: 4 h exposure
Experimental: as §2

[6] = test system: bacterial nitroreductases from the NfsA and NfsB families; experiment: GFP SOS assay with nitroreductase over-expression library; format: cell-based, E. coli strain SOS-R4; details: 55 candidate nitroreductase library, 6 h challenge
Description: The method employed the over-expression of a candidate nitroreductase gene from plasmid pUCX in an SOS reporter strain, as first described in Prosser et al., 2010, Biochem Pharmacol 79, 678-687. In order to enhance the sensitivity of the SOS reporter system, an sfiA::GFP reporter construct was integrated into a CDF-based plasmid (which contains a compatible origin of replication with pUCX) to give the pANODuet reporter plasmid for GFP screening. In addition, nfsA, nfsB, azoR, and nemA genes were deleted to minimise background metabolism, and the tolC gene deleted to minimise efflux of test compounds; this strain was designated SOS-R3. Further improvements were obtained by deleting the mdaB, ycaK, and yieF genes to minimise background metabolism, and by introducing transcriptional terminators to the pANODUET reporter plasmid. This final reporter strain was designated SOS-R4.
Stored glycerols of the 55-membered nitroreductase library in SOS-R4 were thawed and used to inoculate overnight cultures (Lysogeny Broth (LB) amended with 100 μg ml^−1 Ampicillin, 50 μg ml^−1 Spectinomycin, 0.4% glucose) that were incubated at 30° C., 200 rpm for 16 h. The next morning the GFP-SOS assay was commenced by inoculation of 195 μl fresh assay media (LB+100 μg ml^−1 Ampicillin, 50 μg ml^−1 Spectinomycin, 0.2% glucose, 50 μM IPTG) with 15 μl of overnight culture in individual wells of a 96-well plate. Plates were incubated at 30° C., 200 rpm for 2.5 h (pre-challenge period), following which cultures were diluted 1:2 by splitting 50:50 into fresh assay media (+DMSO to 0.5% final concentration) and fresh challenge media (assay media+drug to desired concentration, DMSO to 0.5% final concentration) to final volumes of 80 μl apiece in duplicate on a 384-well plate. Plates were incubated at 30° C., 200 rpm for 6 h (challenge period). GFP expression was determined at excitation 488 nm/emission 509 nm. Turbidity was determined by OD600 and fluorescence data from any replicates not found to be within 15% of the median culture turbidity were discarded.

[7] = test system: H1299 cells engineered to over-express E coli NfsA; experiment: Low cell density IC50 (SRB) assay, H1299 wild type versus E coli NfsA over-expressing cells; format: cell-based, human
Experimental: as §2

[8] = test system: bacterial nitroreductases from the NfsA and NfsB families; experiment: GFP SOS assay with nitroreductase over-expression library; format: cell-based, E. coli strain SOS-R4; details: single and poly mutated variants of NfsA_Ec, single-mutated variant of NfsA_Bs
[9] = test system: H1299 cells engineered to over-express human aldo-ketoreductase 1C3 (AKR1C3); experiment: Low cell density IC50 (SRB) assay, H1299 wild type versus AKR1C3 over-expressing cells; format: cell-based; details: 4 h exposure
Experimental: as §2

[10] = test system: HCT116, H460, H1299 and SiHa wild type cancer cell lines; experiment: Oxic versus anoxic low cell density IC50 assay, wild type cancer cell lines; format: cell-based, human; details: 4 h anoxia during prodrug exposure versus oxic
Experimental: as §2

[11] = test system: wild type SiHa tumour xenografts; experiment: Excision assay with and without radiation, wild type SiHa tumour xenografts; format: in vivo, NIH-III nude mice
Experimental: Tumours were grown subcutaneously in the flank of NIH-III mice by inoculating cells grown in tissue culture. Tumours were monitored using electronic calipers. When tumours reached treatment size, mice were randomized to treatment groups (five to seven per group). Compounds were given as single (or BID) intraperitoneal doses alone or 5 min after whole body irradiation (^60Co source). Eighteen hours after treatment, tumours were excised, weighed, minced, dissociated enzymatically, and plated to determine clonogenicity. Clonogens/gram of tissue were calculated relative to controls and effects of treatment were tested for significance (ANOVA with Dunnett's).

With `CCN1CCN(C(=O)c2cc(N(CCBr)CCBr)c(S(=O)(=O)CC)cc2[N+](=O)[O-])CC1` [compound 26, (5-(bis(2-bromoethyl)amino)-4-(ethylsulfonyl)-2-nitrophenyl)(4-ethylpiperazin-1-yl)methanone] the “AKR1C3-dependent clonogenic cell kill in MCLs” value [1] was “do not cause AKR1C3-dependant cytotoxicity”, the “E coli NfsA-mediated cytotoxicity (IC50 wild type versus NfsA)” value [2] was “produce E coli NfsA-mediated cytotoxicity” and the “bystander cell killing in MCLs” value [3] was “display evidence of metabolism by the 3% E coli NfsA-expressing cells with bystander cell killing of the 97% non-expressing neighbour cells”. For the same compound, the “E coli NfsA mediated anti-tumour efficacy (mean tumour volume)” value [4] was “display significant E coli NfsA mediated anti-tumour efficacy”, the tumour growth delay [4] was “profound tumour growth delay” and the “AKR1C3-mediated cytotoxicity (IC50 wild type versus AKR1C3)” value [5] was “less susceptible to AKR1C3-mediated cytotoxicity than PR-104A”. The “metabolism by bacterial nitroreductases (SOS response)” value [6] was “substrates for multiple wild type and mutant bacterial nitroreductases from the NfsA and NfsB families”, the “E coli NfsA-mediated cytotoxicity (IC50 wild type versus NfsA)” value [7] was “produce E coli NfsA-mediated cytotoxicity” and the “activity with mutated nitroreductase variants” value [8] was “demonstrated”. The “AKR1C3-mediated cytotoxicity (IC50 wild type versus AKR1C3)” value [9] was “less susceptible to AKR1C3-mediated cytotoxicity than PR-104A”.
In the case of `CCS(=O)(=O)c1cc([N+](=O)[O-])c(C(=O)N(C)CCO)cc1N(CCBr)CCBr` [compound 18, 5-(bis(2-bromoethyl)amino)-4-(ethylsulfonyl)-N-(2-hydroxyethyl)-N-methyl-2-nitrobenzamide], the “AKR1C3-dependent clonogenic cell kill in MCLs” value [1] is reported as “do not cause AKR1C3-dependant cytotoxicity”, the “E coli NfsA-mediated cytotoxicity (IC50 wild type versus NfsA)” value [2] is reported as “produce E coli NfsA-mediated cytotoxicity” and the “bystander cell killing in MCLs” value [3] is reported as “display evidence of metabolism by the 3% E coli NfsA-expressing cells with bystander cell killing of the 97% non-expressing neighbour cells”. The hypoxia-dependent cytotoxicity [10] was “increased cytotoxicity in cells under hypoxia”, the “AKR1C3-mediated cytotoxicity (IC50 wild type versus AKR1C3)” value [5] was “less susceptible to AKR1C3-mediated cytotoxicity than PR-104A” and the “metabolism by bacterial nitroreductases (SOS response)” value [6] was “substrates for multiple wild type and mutant bacterial nitroreductases from the NfsA and NfsB families”. For the same compound, the “E coli NfsA-mediated cytotoxicity (IC50 wild type versus NfsA)” value [7] was “produce E coli NfsA-mediated cytotoxicity” and the “activity with mutated nitroreductase variants” value [8] was “demonstrated”.
`CS(=O)(=O)c1cc([N+](=O)[O-])c(C(=O)NCCO)cc1N(CCBr)CCBr` [compound 301, 5-(bis(2-bromoethyl)amino)-N-(2-hydroxyethyl)-4-(methylsulfonyl)-2-nitrobenzamide] was tested, and the hypoxia-dependent cytotoxicity [10] was “increased cytotoxicity in cells under hypoxia”.
`CCN1CCN(C(=O)c2cc(N(CCBr)CCBr)c(S(C)(=O)=O)cc2[N+](=O)[O-])CC1` [compound 23, (5-(bis(2-bromoethyl)amino)-4-(methylsulfonyl)-2-nitrophenyl)(4-ethylpiperazin-1-yl)methanone] was tested, and the “AKR1C3-dependent clonogenic cell kill in MCLs” value [1] was “do not cause AKR1C3-dependant cytotoxicity”, the “E coli NfsA-mediated cytotoxicity (IC50 wild type versus NfsA)” value [2] was “produce E coli NfsA-mediated cytotoxicity” and the “bystander cell killing in MCLs” value [3] was “display evidence of metabolism by the 3% E coli NfsA-expressing cells with bystander cell killing of the 97% non-expressing neighbour cells”. The “E coli NfsA mediated anti-tumour efficacy (mean tumour volume)” value [4] was “display significant E coli NfsA mediated anti-tumour efficacy”, the tumour growth delay [4] was “profound tumour growth delay” and the “AKR1C3-mediated cytotoxicity (IC50 wild type versus AKR1C3)” value [5] was “less susceptible to AKR1C3-mediated cytotoxicity than PR-104A”. The “metabolism by bacterial nitroreductases (SOS response)” value [6] was “substrates for multiple wild type and mutant bacterial nitroreductases from the NfsA and NfsB families”, the “cell killing in combination with radiation versus radiation alone” value ([11]; HCT116 POR and wild type SiHa xenografts, 10 or 15Gy, single (or BID) intraperitoneal dose) was “increased cell killing above what could be achieved with radiation alone” and the “hypoxic cell kill in vivo (log cell kill)” value ([11]; with or without 10Gy radiation, 22 at 422, 300 and 11 at 1330, 23 at 1000 umol/kg) was “significant hypoxic cell kill in vivo”. For the same compound, the “E coli NfsA-mediated cytotoxicity (IC50 wild type versus NfsA)” value [7] was “produce E coli NfsA-mediated cytotoxicity”, the “activity with mutated nitroreductase variants” value [8] was “demonstrated” and the “AKR1C3-mediated cytotoxicity (IC50 wild type versus AKR1C3)” value [9] was “less susceptible to AKR1C3-mediated cytotoxicity than PR-104A”.
For `CCS(=O)(=O)c1cc([N+](=O)[O-])c(C(=O)N2CCN(C)CC2)cc1N(CCBr)CCBr` [compound 25, (5-(bis(2-bromoethyl)amino)-4-(ethylsulfonyl)-2-nitrophenyl)(4-methylpiperazin-1-yl)methanone], the “AKR1C3-dependent clonogenic cell kill in MCLs” value [1] was “do not cause AKR1C3-dependant cytotoxicity”, the “E coli NfsA-mediated cytotoxicity (IC50 wild type versus NfsA)” value [2] was “produce E coli NfsA-mediated cytotoxicity” and the “bystander cell killing in MCLs” value [3] was “display evidence of metabolism by the 3% E coli NfsA-expressing cells with bystander cell killing of the 97% non-expressing neighbour cells”. For the same compound, the “AKR1C3-mediated cytotoxicity (IC50 wild type versus AKR1C3)” value [5] was “less susceptible to AKR1C3-mediated cytotoxicity than PR-104A”, the “metabolism by bacterial nitroreductases (SOS response)” value [6] was “substrates for multiple wild type and mutant bacterial nitroreductases from the NfsA and NfsB families” and the “E coli NfsA-mediated cytotoxicity (IC50 wild type versus NfsA)” value [7] was “produce E coli NfsA-mediated cytotoxicity”. The “activity with mutated nitroreductase variants” value [8] was “demonstrated” and the “AKR1C3-mediated cytotoxicity (IC50 wild type versus AKR1C3)” value [9] was “less susceptible to AKR1C3-mediated cytotoxicity than PR-104A”.
